Measured values published in patent US11208400B2, “Substituted 6-(1H-pyrazol-1-yl)pyrimidin-4-amine derivatives and uses thereof” (Bayer Aktiengesellschaft, priority 2016, dated 2021).
pIC50: −log10 of the molar value.

molecular target: T1, human Npt2a (Homo sapiens, UniProt Q06495); assay: Npt2a activity cell based assay, membrane potential dye, CHO T-REx hNpt2a cells; conditions: doxycycline-induced, depolarization by sodium phosphate influx, average or median values if tested more than once
T1 construct: expressed in transfected cells
T1 sequence (Q06495 1-639): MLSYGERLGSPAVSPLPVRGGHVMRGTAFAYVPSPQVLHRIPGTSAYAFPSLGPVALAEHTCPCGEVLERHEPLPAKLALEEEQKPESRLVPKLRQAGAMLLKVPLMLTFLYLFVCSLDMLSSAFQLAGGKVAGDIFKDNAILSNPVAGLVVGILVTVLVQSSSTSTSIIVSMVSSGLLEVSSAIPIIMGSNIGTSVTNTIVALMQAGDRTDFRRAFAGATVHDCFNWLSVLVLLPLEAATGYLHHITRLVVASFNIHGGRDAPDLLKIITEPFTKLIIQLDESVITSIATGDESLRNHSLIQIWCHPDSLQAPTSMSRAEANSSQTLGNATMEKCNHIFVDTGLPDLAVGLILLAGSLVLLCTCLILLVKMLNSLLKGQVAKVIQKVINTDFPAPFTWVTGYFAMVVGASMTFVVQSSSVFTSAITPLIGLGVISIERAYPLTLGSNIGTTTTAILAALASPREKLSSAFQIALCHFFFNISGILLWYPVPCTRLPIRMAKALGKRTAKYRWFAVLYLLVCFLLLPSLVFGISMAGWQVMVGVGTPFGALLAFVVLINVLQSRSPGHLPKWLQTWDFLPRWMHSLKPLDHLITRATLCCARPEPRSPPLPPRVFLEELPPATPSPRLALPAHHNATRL
Method in brief: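 Doxycycline-induced (0.5 μg/mL, 24 h) CHO T-REx cells were loaded with membrane potential dye in sodium-free NHE buffer (pH 7.4) and exposed to compound (50 μM–1 nM, 5 min, room temperature).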

`Cc1ccc(-c2nn(CC3CC3)c(Nc3cc(-n4nc(C)c(Cl)c4C)ncn3)c2C)cn1` [Example 397, 6-(4-chloro-3,5-dimethyl-1H-pyrazol-1-yl)-N-[1-(cyclopropylmethyl)-4-methyl-3-(6-methylpyridin-3-yl)-1H-pyrazol-5-yl]pyrimidin-4-amine] and `CCOC(=O)c1c(C)nn(-c2cc(Nc3c(C)c(-c4ccc(C)nc4)nn3CC3CC3)ncn2)c1C` [Example 418, ethyl 1-(6-{[1-(cyclopropylmethyl)-4-methyl-3-(6-methylpyridin-3-yl)-1H-pyrazol-5-yl]amino}pyrimidin-4-yl)-3,5-dimethyl-1H-pyrazole-4-carboxylate] are within 0.2 log units of each other in pIC50: 7.04 for the first, 7.19 for the second.

Compared with `COc1c(C)nn(-c2cc(Nc3nn(C)c(-c4ccc(F)cn4)c3C)ncn2)c1C` [Example 461, N-[5-(5-fluoropyridin-2-yl)-1,4-dimethyl-1H-pyrazol-3-yl]-6-(4-methoxy-3,5-dimethyl-1H-pyrazol-1-yl)pyrimidin-4-amine], `COc1c(C)nn(-c2cc(Nc3nn(C)c(-c4ccc(F)cc4)c3OC(F)F)ncn2)c1C` [Example 470, N-[4-(difluoromethoxy)-5-(4-fluorophenyl)-1-methyl-1H-pyrazol-3-yl]-6-(4-methoxy-3,5-dimethyl-1H-pyrazol-1-yl)pyrimidin-4-amine] is 1.75 log units higher in pIC50: 6.77 for the first, 8.52 for the second. The second is the more potent here.

Compared with `Cc1nn(-c2cc(Nc3c(C)c(-c4ccncc4)nn3CC3CC3)ncn2)c(C)c1Cl` [Example 351, 6-(4-chloro-3,5-dimethyl-1H-pyrazol-1-yl)-N-[1-(cyclopropylmethyl)-4-methyl-3-(pyridin-4-yl)-1H-pyrazol-5-yl]pyrimidin-4-amine], `Cc1nn(-c2cc(Nc3c(C)c(-c4ccc(F)cc4)nn3CC3CC3)ncn2)c(C)c1C#N` [Example 288, 1-(6-{[1-(cyclopropylmethyl)-3-(4-fluorophenyl)-4-methyl-1H-pyrazol-5-yl]amino}pyrimidin-4-yl)-3,5-dimethyl-1H-pyrazole-4-carbonitrile] is 0.61 log units higher in pIC50: 7.19 for the first, 7.80 for the second.

`CCOC(=O)c1c(C)nn(-c2cc(Nc3c(C)c(-c4ccc(F)cc4)nn3C)ncn2)c1C` [Example 59, ethyl 1-(6-{[3-(4-fluorophenyl)-1,4-dimethyl-1H-pyrazol-5-yl]amino}pyrimidin-4-yl)-3,5-dimethyl-1H-pyrazole-4-carboxylate] and `CCOC(=O)Cc1c(C)nn(-c2cc(Nc3c(C)c(-c4ccc(F)cc4)nn3CC3CC3)ncn2)c1C` [Example 281, ethyl [1-(6-{[1-(cyclopropylmethyl)-3-(4-fluorophenyl)-4-methyl-1H-pyrazol-5-yl]amino}pyrimidin-4-yl)-3,5-dimethyl-1H-pyrazol-4-yl]acetate] are within 0.2 log units of each other in pIC50: 7.92 for the first, 7.80 for the second.

Going from `CCc1c(Nc2cc(-n3nc(C)c(C(=O)OC(C)(C)C)c3C(F)F)ncn2)nn(C)c1-c1ccc(F)cc1` [Example 166, tert-butyl 5-(difluoromethyl)-1-(6-{[4-ethyl-5-(4-fluorophenyl)-1-methyl-1H-pyrazol-3-yl]amino}pyrimidin-4-yl)-3-methyl-1H-pyrazole-4-carboxylate] to `CCc1c(Nc2cc(-n3nc(C)c4c3CCC4(C)O)ncn2)nn(C)c1-c1ccc(F)cc1` (racemic) [Example 146, (rac)-1-(6-{[4-ethyl-5-(4-fluorophenyl)-1-methyl-1H-pyrazol-3-yl]amino}pyrimidin-4-yl)-3,4-dimethyl-1,4,5,6-tetrahydrocyclopenta[c]pyrazol-4-ol], the pIC50 falls from 8.05 to 6.90 (1.15 log units). The first is the more potent here.

Going from `CCc1c(-c2ccc(F)cc2)nn(C)c1Nc1cc(-n2nc(C)c3ncccc32)ncn1` [Example 229, N-[4-ethyl-3-(4-fluorophenyl)-1-methyl-1H-pyrazol-5-yl]-6-(3-methyl-1H-pyrazolo[4,3-b]pyridin-1-yl)pyrimidin-4-amine] to `CCc1c(-c2ccc(F)cc2)nn(C)c1Nc1cc(-n2nc(C)c3cnccc32)ncn1` [Example 230, N-[4-ethyl-3-(4-fluorophenyl)-1-methyl-1H-pyrazol-5-yl]-6-(3-methyl-1H-pyrazolo[4,3-c]pyridin-1-yl)pyrimidin-4-amine], the pIC50 falls from 6.46 to 6.08 (0.38 log units). The first is the more potent here.

First: CCc1c(Nc2cc(-n3ncc4c3CN(C(=O)OC(C)(C)C)C4)ncn2)n[nH]c1-c1ccc(F)cc1 [Example 37, tert-butyl 1-(6-{[4-ethyl-5-(4-fluorophenyl)-1H-pyrazol-3-yl]amino}pyrimidin-4-yl)-4,6-dihydropyrrolo[3,4-c]pyrazole-5(1H)-carboxylate]
Second: CCc1c(Nc2cc(-n3nc(C)c(Cl)c3C)ncn2)n[nH]c1-c1ccc(F)cc1 [Example 5, 6-(4-chloro-3,5-dimethyl-1H-pyrazol-1-yl)-N-[4-ethyl-5-(4-fluorophenyl)-1H-pyrazol-3-yl]pyrimidin-4-amine]
The pIC50 of the first is 1.79 log units lower: 5.77 for the first, 7.56 for the second. The second is the more potent here.

First: CCc1c(Nc2cc(-n3nc(C)c(C4(O)CCC4)c3C)ncn2)nn(C)c1-c1ccc(F)cc1 [Example 215, 1-[1-(6-{[4-ethyl-5-(4-fluorophenyl)-1-methyl-1H-pyrazol-3-yl]amino}pyrimidin-4-yl)-3,5-dimethyl-1H-pyrazol-4-yl]cyclobutanol]
Second: CCc1c(Nc2cc(-n3nc4ncccc4c3C)ncn2)nn(C)c1-c1ccc(F)cc1 [Example 167, N-[4-ethyl-5-(4-fluorophenyl)-1-methyl-1H-pyrazol-3-yl]-6-(3-methyl-2H-pyrazolo[3,4-b]pyridin-2-yl)pyrimidin-4-amine]
The pIC50 of the first is 0.34 log units higher: 6.60 for the first, 6.26 for the second. The first is the more potent here.

Compared with `CSc1cc(-c2nn(CC3CC3)c(Nc3cc(-n4nc(C)cc4C)ncn3)c2C)ccc1F` [Example 430, N-{1-(cyclopropylmethyl)-3-[4-fluoro-3-(methylsulfanyl)phenyl]-4-methyl-1H-pyrazol-5-yl}-6-(3,5-dimethyl-1H-pyrazol-1-yl)pyrimidin-4-amine], `Cc1cc(C)n(-c2cc(Nc3c(C)c(-c4ccc(OC(F)(F)F)cc4)nn3CC3CC3)ncn2)n1` [Example 308, N-{1-(cyclopropylmethyl)-4-methyl-3-[4-(trifluoromethoxy)phenyl]-1H-pyrazol-5-yl}-6-(3,5-dimethyl-1H-pyrazol-1-yl)pyrimidin-4-amine] is 0.29 log units higher in pIC50: 7.35 for the first, 7.64 for the second.

`Cc1cc(C)n(-c2cc(Nc3c(C)c(-c4ccc(Cl)cc4)nn3C)ncn2)n1` [Example 354, N-[3-(4-chlorophenyl)-1,4-dimethyl-1H-pyrazol-5-yl]-6-(3,5-dimethyl-1H-pyrazol-1-yl)pyrimidin-4-amine] and `Cc1cc(C)n(-c2cc(Nc3c(C)c(-c4ccc(Br)cc4)nn3C)ncn2)n1` [Example 260, N-[3-(4-bromophenyl)-1,4-dimethyl-1H-pyrazol-5-yl]-6-(3,5-dimethyl-1H-pyrazol-1-yl)pyrimidin-4-amine] are within 0.2 log units of each other in pIC50: 6.87 for the first, 6.85 for the second.

`Cc1nn(-c2cc(Nc3nn(C)c(-c4ccc(OC(F)(F)F)cc4)c3C)ncn2)c(C)c1Cl` [Example 117, 6-(4-chloro-3,5-dimethyl-1H-pyrazol-1-yl)-N-{1,4-dimethyl-5-[4-(trifluoromethoxy)phenyl]-1H-pyrazol-3-yl}pyrimidin-4-amine] and `COc1c(C)nn(-c2cc(Nc3c(C)c(-c4ccc(C(F)(F)F)nc4)nn3CC3CC3)ncn2)c1C` [Example 535, N-{1-(cyclopropylmethyl)-4-methyl-3-[6-(trifluoromethyl)pyridin-3-yl]-1H-pyrazol-5-yl}-6-(4-methoxy-3,5-dimethyl-1H-pyrazol-1-yl)pyrimidin-4-amine] are within 0.2 log units of each other in pIC50: 7.72 for the first, 7.59 for the second.

Compared with `CCc1c(Nc2cc(-n3cc4c(n3)CCCC4)ncn2)n[nH]c1-c1ccc(F)cc1` [Example 18, N-[4-ethyl-5-(4-fluorophenyl)-1H-pyrazol-3-yl]-6-(4,5,6,7-tetrahydro-2H-indazol-2-yl)pyrimidin-4-amine], `CCc1c(-c2ccc(F)cc2)nn(CC2CC2)c1Nc1cc(-n2nc(C)cc2C)ncn1` [Example 121, N-[1-(cyclopropylmethyl)-4-ethyl-3-(4-fluorophenyl)-1H-pyrazol-5-yl]-6-(3,5-dimethyl-1H-pyrazol-1-yl)pyrimidin-4-amine] is higher in pIC50: 6.96 for the first, greater than 8.80 for the second. The second is the more potent here.

Compared with `COc1c(-c2ccc(C#N)cc2)nn(CC2CC2)c1Nc1cc(-n2nc(C)c(C(C)O)c2C)ncn1` (racemic) [Example 331, (±)-4-{1-(cyclopropylmethyl)-5-[(6-{4-[(1S)-1-hydroxyethyl]-3,5-dimethyl-1H-pyrazol-1-yl}pyrimidin-4-yl)amino]-4-methoxy-1H-pyrazol-3-yl}benzonitrile], `Cc1c(-c2ccc(F)cc2)nn(CC2CC2)c1Nc1cc(-n2cc3c(n2)CN(C(=O)OC(C)(C)C)C3)ncn1` [Example 433, tert-butyl 2-(6-{[1-(cyclopropylmethyl)-3-(4-fluorophenyl)-4-methyl-1H-pyrazol-5-yl]amino}pyrimidin-4-yl)-2,6-dihydropyrrolo[3,4-c]pyrazole-5(4H)-carboxylate] is 0.27 log units higher in pIC50: 5.55 for the first, 5.82 for the second. The second is the more potent here.

With `Cc1nn(-c2cc(Nc3c(C)c(-c4ccc(F)cc4F)nn3C)ncn2)c(C)c1C(C)(C)O` [Example 378, 2-[1-(6-{[3-(2,4-difluorophenyl)-1,4-dimethyl-1H-pyrazol-5-yl]amino}pyrimidin-4-yl)-3,5-dimethyl-1H-pyrazol-4-yl]propan-2-ol] the pIC50 was 5.59.
